This experiment can be described thus: Binding affinity to human recombinant Nav1.7 by radioligand binding assay.

By Kd is commonly meant the free concentration of one partner at which half of the binding sites on the other are occupied at equilibrium, for simple one-to-one binding.

For the compound `Cc1nn([C@@H]2CCN([C@H](C)c3cc(Cl)cc(Cl)c3)C2)c2cc(F)c(C(=O)NS(=O)(=O)C3CC3)cc12`, the Kd was 22 nM.

Consider `CS(=O)(=O)NC(=O)c1cc(C2CC2)c(OCC2CCN(Cc3cc(C(F)(F)F)ccc3Cl)CC2)cc1F` [US9546164, 580], for which the Kd came out at 3.5 nM.

The values are drawn from BindingDB's records for doi:10.1021/acs.jmedchem.8b01906 (Siteone Therapeutics, 2019).
